Assay results as given in the supplement of paper PMC10307832.

Key:
Test in all cases: relative viability (nuclei count vs DMSO), 5 days (fraction); higher = more cells survive
[1] = compound: CC1=CN=C(N=C1C2=CNC(=C2)C(=O)N[C@H](CO)C3=CC(=CC=C3)Cl)NC4=C(C=C(C=C4)F)Cl [VX-11e] + CC1(C)CCC(c2ccc(Cl)cc2)=C(CN2CCN(c3ccc(C(=O)NS(=O)(=O)c4ccc(N[C@H](CCN5CCOCC5)CSc5ccccc5)c(S(=O)(=O)C(F)(F)F)c4)cc3)CC2)C1 [Navitoclax] (partner 0.5 µM)
Summary of the method: (§1)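 Relative viability was taken as the ratio of nuclei in treated wells to nuclei in vehicle wells. Lung cancer cell lines in 1536-well plates received compounds by pin tool one day after seeding, either one drug alone or a fixed anchor-drug dose plus five library-drug doses (not always all listed) in √10 steps. Nuclei were counted on 4× images after 5 days of treatment, and values are medians of duplicate plates.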

[2] = compound: CC1=CN=C(N=C1C2=CNC(=C2)C(=O)N[C@H](CO)C3=CC(=CC=C3)Cl)NC4=C(C=C(C=C4)F)Cl [VX-11e] + CC(C)C[C@H](NC(=O)[C@H](Cc1ccccc1)NC(=O)c1cnccn1)B(O)O [Bortezomib] (partner 0.002 µM)
Summary of the method: as §1

[3] = compound: CC1=CN=C(N=C1C2=CNC(=C2)C(=O)N[C@H](CO)C3=CC(=CC=C3)Cl)NC4=C(C=C(C=C4)F)Cl [VX-11e] + Cc1nc(Nc2ncc(C(=O)Nc3c(C)cccc3Cl)s2)cc(N2CCN(CCO)CC2)n1 [Dasatinib] (partner 0.075 µM)
Summary of the method: as §1

[4] = compound: CC1=CN=C(N=C1C2=CNC(=C2)C(=O)N[C@H](CO)C3=CC(=CC=C3)Cl)NC4=C(C=C(C=C4)F)Cl [VX-11e] + CCNC(=O)c1noc(-c2cc(C(C)C)c(O)cc2O)c1-c1ccc(CN2CCOCC2)cc1 [Luminespib] (partner 0.01 µM)
Summary of the method: as §1

Cell Line	relative viability ([1]; first compound 0.04 µM)	relative viability ([1]; first compound 0.1265 µM)	relative viability ([1]; first compound 0.4 µM)	relative viability ([1]; first compound 1.265 µM)	relative viability ([1]; first compound 4 µM)	relative viability ([2]; first compound 0.04 µM)	relative viability ([2]; first compound 0.1265 µM)	relative viability ([2]; first compound 0.4 µM)	relative viability ([2]; first compound 1.265 µM)	relative viability ([2]; first compound 4 µM)	relative viability ([3]; first compound 0.04 µM)	relative viability ([3]; first compound 0.1265 µM)	relative viability ([3]; first compound 0.4 µM)	relative viability ([3]; first compound 1.265 µM)	relative viability ([3]; first compound 4 µM)	relative viability ([4]; first compound 0.04 µM)	relative viability ([4]; first compound 0.1265 µM)	relative viability ([4]; first compound 0.4 µM)	relative viability ([4]; first compound 1.265 µM)	relative viability ([4]; first compound 4 µM)
201T	1.23	1.16	1.2	1.17	1.08	1.05	1.11	1.12	1.02	1.03	0.58	0.536	0.486	0.502	0.495	1.06	1.06	1.09	1.05	0.918
A-427	0.999	0.88	0.796	0.585	0.268	1.11	0.955	1.06	1.04	0.479	0.751	0.574	0.488	0.232	0.114	1.05	0.865	0.642	0.687	0.483
ABC-1	–	–	–	–	–	0.268	0.246	0.262	0.263	0.263	0.72	0.551	0.468	0.561	0.497	–	–	0.495	0.436	0.518
BEN	0.0581	0.0703	0.0708	0.061	0.0537	0.543	0.779	0.942	0.533	0.725	–	0.277	0.399	0.236	0.252	–	0.241	0.475	0.376	0.264
CAL-12T	1.14	1.3	1.09	1.2	0.422	–	–	0.91	0.715	0.509	0.466	0.34	0.249	0.243	0.111	0.392	0.434	0.462	0.433	0.276
COR-L23	1.25	1.13	0.924	0.681	0.305	1.29	0.967	1.12	0.667	0.348	0.486	0.453	0.442	0.355	0.208	0.787	0.577	0.5	0.532	0.234
COR-L 105	0.591	0.759	0.55	0.692	0.284	0.814	0.826	0.6	0.338	0.226	0.316	0.344	0.33	0.198	0.229	0.978	0.391	0.825	0.592	0.375
Calu-6	0.994	0.786	0.737	0.219	0.109	1.08	1.04	1.03	0.333	0.206	–	–	–	–	–	–	–	–	–	–
ChaGo-K-1	0.616	–	1.07	0.781	0.787	1.01	–	1.11	0.759	0.772	0.516	0.587	0.584	0.654	0.557	0.633	0.646	0.561	0.688	0.507
EBC-1	0.362	0.474	0.325	0.271	0.168	0.512	0.528	0.599	0.576	0.239	–	–	–	–	–	–	–	–	–	–
EKVX	0.847	0.935	0.926	0.831	0.601	1.06	0.977	0.951	1	0.406	0.687	0.482	0.401	0.489	0.247	0.714	0.894	0.723	0.85	0.52
EMC-BAC-2	1.22	1.11	0.994	0.927	0.833	1.04	1.01	1.14	1.02	0.858	0.303	0.291	0.437	0.509	0.407	1.21	1.19	1.2	1.19	0.924
EPLC-272H	1.09	1.02	1.01	0.82	0.668	0.94	0.799	0.841	0.839	0.665	0.328	0.269	–	0.334	0.2	0.173	0.302	–	0.293	0.148
H3255	0.526	0.451	0.657	0.614	0.496	0.709	0.857	0.657	0.612	0.64	0.37	0.38	0.538	0.281	0.347	0.773	0.963	0.819	0.686	0.89
HARA	1.16	1.1	1.13	1.13	0.968	0.992	1.08	1.13	0.507	0.803	0.306	0.2	0.273	0.248	0.157	0.677	0.609	0.637	0.695	0.297
HCC-15	0.711	0.649	0.53	0.317	0.196	1.1	1.07	0.754	0.794	0.428	0.66	0.52	–	0.243	0.148	0.264	0.363	0.207	0.18	0.175
HCC-44	0.92	0.883	1.22	1	0.732	0.913	0.912	0.857	0.646	0.453	–	–	–	–	–	1.17	0.96	0.364	0.556	0.916

Cell Line	relative viability ([1]; first compound 0.04 µM)	relative viability ([1]; first compound 0.1265 µM)	relative viability ([1]; first compound 0.4 µM)	relative viability ([1]; first compound 1.265 µM)	relative viability ([1]; first compound 4 µM)	relative viability ([2]; first compound 0.04 µM)	relative viability ([2]; first compound 0.1265 µM)	relative viability ([2]; first compound 0.4 µM)	relative viability ([2]; first compound 1.265 µM)	relative viability ([2]; first compound 4 µM)	relative viability ([3]; first compound 0.04 µM)	relative viability ([3]; first compound 0.1265 µM)	relative viability ([3]; first compound 0.4 µM)	relative viability ([3]; first compound 1.265 µM)	relative viability ([3]; first compound 4 µM)	relative viability ([4]; first compound 0.04 µM)	relative viability ([4]; first compound 0.1265 µM)	relative viability ([4]; first compound 0.4 µM)	relative viability ([4]; first compound 1.265 µM)	relative viability ([4]; first compound 4 µM)
HCC-78	0.878	0.69	0.769	0.455	0.762	0.565	0.491	0.505	0.227	0.441	–	0.412	0.411	0.382	0.44	–	–	–	–	–
HCC-366	1.22	1.02	–	0.993	0.708	0.959	0.895	–	0.864	0.759	0.736	0.612	–	0.434	0.241	–	–	–	–	–
LCLC-103H	–	–	–	–	–	1.07	1.11	1.03	0.658	0.917	0.45	0.435	0.545	0.446	0.444	0.98	0.698	1.03	0.83	0.785
LK-2	0.893	0.732	0.781	0.738	0.86	–	–	–	–	–	0.25	0.344	0.244	0.155	0.257	0.197	0.198	0.193	0.182	0.183
NCI-H358	–	–	–	–	–	–	–	–	–	–	0.17	0.125	0.0855	0.162	0.103	–	0.312	0.208	0.464	0.117
NCI-H650	–	–	–	–	–	–	0.692	1.23	–	0.87	0.418	0.467	0.425	0.414	0.398	0.749	0.8	0.606	0.772	0.677
NCI-H661	–	–	–	–	–	0.791	0.899	0.819	0.683	0.583	0.863	0.799	0.784	0.684	0.352	0.981	0.913	0.937	0.907	0.603
NCI-H1299	1.02	1.01	1.02	0.976	0.692	0.987	0.978	0.978	1.05	0.556	–	–	–	–	–	–	–	–	–	–
NCI-H1395	1.16	0.999	0.832	1.06	0.659	–	–	–	–	–	0.448	0.383	0.346	0.398	0.376	0.804	0.637	0.423	0.682	0.46
NCI-H1563	–	–	–	–	–	0.884	0.734	0.637	0.739	0.747	0.417	0.47	0.506	0.411	0.449	0.522	0.555	0.488	0.508	0.465
NCI-H1703	1.12	1.21	1.24	1.29	0.744	0.473	0.414	0.258	0.35	0.21	–	–	–	–	–	–	–	–	–	–
NCI-H1793	–	0.526	–	0.382	0.152	–	–	–	–	–	0.197	0.292	–	0.326	0.287	0.178	0.177	–	0.275	0.15
NCI-H1944	0.947	1.03	0.951	0.944	0.504	–	–	–	–	–	0.203	0.207	–	0.2	0.154	0.711	0.708	–	0.571	0.422
NCI-H2170	0.576	0.528	0.496	0.583	0.404	–	–	–	–	–	0.339	0.664	0.461	0.341	0.445	0.878	0.639	0.566	0.802	0.436
NCI-H2342	–	–	–	–	–	–	–	–	–	–	0.31	0.282	0.285	0.307	0.348	0.79	0.76	0.558	0.617	0.747
SK-MES-1	1.21	1.15	1.24	1.1	0.408	–	–	–	–	–	0.403	0.332	0.393	0.188	0.185	0.838	0.634	0.766	0.406	0.262
SW 900	–	–	–	–	–	–	–	–	–	–	0.59	0.588	0.137	0.585	0.385	0.211	0.186	0.174	0.175	0.173
